Read-outs that look alike come from different tables or passages of the source.
Molecular target: rat MCH-1 (Rattus norvegicus, UniProt P97639)
Assay: Radioligand binding assay at cloned rat MCH1 receptor ([3H] Compound A)
Set-up: host or cells: Peak rapid 293 (Peakr293) cells, transient calcium phosphate transfection, membranes
Settings: cloned rat MCH1 receptor, 0.08 nM [3H] Compound A, read-out: Ki (nM) rMCH1

Sequence of rat MCH-1 (P97639 whole entry): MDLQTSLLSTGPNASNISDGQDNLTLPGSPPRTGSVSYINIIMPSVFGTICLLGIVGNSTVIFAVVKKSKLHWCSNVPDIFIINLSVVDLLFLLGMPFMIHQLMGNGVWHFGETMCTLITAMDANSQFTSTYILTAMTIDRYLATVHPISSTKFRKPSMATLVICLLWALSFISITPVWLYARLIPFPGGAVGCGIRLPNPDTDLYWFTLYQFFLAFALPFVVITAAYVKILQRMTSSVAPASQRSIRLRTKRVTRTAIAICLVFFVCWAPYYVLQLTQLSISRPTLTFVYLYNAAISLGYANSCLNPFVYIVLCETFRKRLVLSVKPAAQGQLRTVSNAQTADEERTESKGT

| SMILES | Ki (Peakr293 cell membranes) [nM] | Ki (membranes from Peakr293 cells) [nM] |
| --- | --- | --- |
| COc1ccc(C(=O)NCCCCN2CCC(c3cccc(NC(=O)C(C)C)c3)CC2)cc1OC [Example 679] | 97.9 | – |
| O=C(CCCCN1CCC(c2cccc(NC(=O)C3CC3)c2)CC1)c1cccc(C(F)(F)F)c1 [Example 568] | 68.8 | – |
| CC(C)C(=O)Nc1cccc(C2CCN(CCNC(=O)c3ccc4ccccc4c3)CC2)c1 [Example 650] | 21.1 | – |
| O=C(Nc1cccc(C2CCN(CCCSc3ccccc3)CC2)c1)C1CC1 [Example 580] | 54 | – |
| CC(C)C(=O)Nc1cccc(C2CCN(Cc3c[nH]c4c(-c5cccc(Cl)c5)cccc34)CC2)c1 [Example 520] | 135 | – |
| COc1ccc2[nH]c(-c3cccc(F)c3)c(CCCN3CCC(c4cccc(NC(=O)C(C)C)c4)CC3)c2c1 [Example 701] | 2.5 | – |
| CC(C)C(=O)Nc1cccc(C2CCN(CCCCCC(O)c3cccc(F)c3)CC2)c1 (stereo not drawn) [Example 813] | 57.3 | – |
| COc1ccc(OC(CCCCCN2CCC(c3cccc(NC(=O)C(C)C)c3)CC2)c2ccc(Cl)cc2)cc1 (stereo not drawn) [Example 906] | 5.7 | – |
| CC(C)C(=O)Nc1cccc(C2CCN(CCCCNC(=O)c3cccnc3Oc3ccc(Cl)cc3)CC2)c1 [Example 678] | 14.7 | – |
| CC(C)C(=O)Nc1cccc(C2CCN(CCCNC(=O)NCc3ccccc3)CC2)c1 [Example 616] | 406 | – |
| COc1ccc(C(CCN2CCC(c3cccc(NC(=O)C(C)C)c3)CC2)Oc2ccc(C(F)(F)F)cc2)cc1 (stereo not drawn) [Example 182] | – | 101 |
| CC(C)C(=O)Nc1cccc(C2CCN(C[C@H](C)COc3ccc(F)cc3)CC2)c1 [Example 359] | – | 83.2 |
| CC(C)C(=O)Nc1cccc(C2CCN(Cc3ccc(-c4cccc(OC(F)(F)F)c4)o3)CC2)c1 [Example 254] | – | 401 |
| CC(C)C(=O)Nc1cccc(C2CCN(CCC(Oc3ccc(F)c(F)c3)c3ccc(F)cc3)CC2)c1 (stereo not drawn) [Example 134] | – | 36.6 |

Further lines, results first:

| Ki (Peakr293 cell membranes) [nM] | Ki (membranes from Peakr293 cells) [nM] | SMILES |
| --- | --- | --- |
| 57.9 | – | CC(C)C(=O)Nc1cccc(C2CCN(Cc3c[nH]c4cc([N+](=O)[O-])ccc34)CC2)c1 [Example 507] |
| – | 41.7 | CC(C)C(=O)Nc1cccc(C2CCN(CCC(Oc3c(F)c(F)c(F)c(F)c3F)c3ccc(F)cc3)CC2)c1 (stereo not drawn) [Example 132] |
| 9.9 | – | CC(C)C(=O)Nc1cccc(C2CCN(CCCCc3ccc([N+](=O)[O-])cc3)CC2)c1 [Example 800] |
| 21.6 | – | CC(C)C(=O)Nc1cccc(C2CCN(CCc3cn(-c4ccccc4)c4ccccc34)CC2)c1 [Example 408] |
| 7.7 | – | COc1ccc2[nH]c(-c3ccc(Cl)cc3)c(CCCN3CCC(c4cccc(NC(=O)C(C)C)c4)CC3)c2c1 [Example 713] |
| 8.7 | – | CCC(=O)Nc1cccc(C2CCN(CCCC(=O)c3ccc(Cl)cc3)CC2)c1 [Example 532] |
| 7.6 | – | CC(C)C(=O)Nc1cccc(C2CCN(CCCCCC(Oc3cc(C(F)(F)F)ccc3F)c3ccc(F)cc3)CC2)c1 (stereo not drawn) [Example 911] |
| – | 20.3 | CCn1c2ccccc2c2cc(CN3CCC(c4ccc(C)c(NC(=O)C(C)C)c4)CC3)ccc21 [Example 268] |
| – | 10.6 | CC(C)C(=O)Nc1cccc(C2CCN(CC[C@H](NC(=O)c3ccc(F)c(F)c3)c3ccccc3)CC2)c1 [Example 320] |
| 8.3 | – | CC(C)C(=O)Nc1cccc(C2CCN(CCCNC(=O)c3ccc(Oc4cc(Cl)cc(Cl)c4)o3)CC2)c1 [Example 642] |
| 20.9 | – | CC(C)C(=O)Nc1cccc(C2CCN(CCCCCCNC(=O)c3ccc(Oc4cc(Cl)cc(Cl)c4)o3)CC2)c1 [Example 626] |
| 35.6 | – | CCC(=O)Nc1cccc(C2CCN(CCCCC(=O)c3ccc([N+](=O)[O-])cc3)CC2)c1 [Example 556] |
| – | 4 | CC(C)C(=O)Nc1cccc(C2CCN(CC[C@H](NC(=O)C(c3ccccc3)c3ccccc3)c3ccccc3)CC2)c1 [Example 304] |
| – | 6.8 | COc1ccc(OC(CCN2CCC(c3cccc(NC(=O)C(C)C)c3)CC2)c2ccc(F)cc2)cc1 (stereo not drawn) [Example 177] |
| 7.6 | – | CC(C)C(=O)Nc1cccc(C2CCN(CC[C@H](NC(=O)c3sccc3Cl)c3ccccc3)CC2)c1 [Example 593] |
| 181 | – | CC(C)C(=O)Nc1cccc(C2CCN(CCCCC(=O)N3C(=O)OC[C@H]3c3ccc(F)c(F)c3)CC2)c1 [Example 572] |

— patent US6727264B1 (Synaptic Pharmaceutical Corporation, priority 2001, dated 2004)
